From US11357786B2, “Synthetic disugar hydrocarbons as natural analogs to control microbial behaviors” (Syracuse University, priority 2014, dated 2022)
“Also recorded” adds a separate entry of the source.

Experiments:
Assay type in all cases: cell-based, Pseudomonas aeruginosa
[1] = tested on: PAO1 biofilm; assay: Crystal violet based static biofilm inhibition assay, DSHs in LB media (Examples 2 and 4); conditions: for Inhibition of PAO1 biofilm formation (surface attached): 160 μM, 24 h, LB media
Method: The ability of DSHs was tested to inhibit Pseudomonas aeruginosa adhesion, biofilm and to disperse pre-formed biofilm. To quantify the amount of PAO1/EGFP attached on the surface of micro titer plates with or without the synthesized DSHs, fluorescence emitted by green fluorescent proteins (GFP) was quantified (see supporting info for details). Crystal violet (CV) based static biofilm assay (see supporting info) was used to screen the anti-biofilm potencies of all synthesized agents. Both surface attached (SA) (FIG. 17) and total (SA+air-liquid interface) biofilm of P. aeruginosa was quantified. […] CV assays were also used to quantify the amount of P. aeruginosa biofilm remaining after dispersion experiments (FIG. 19). Initially, all agents were screen for anti-biofilm activities (both inhibition and dispersion) at 160 μM. […] All reported biofilm inhibition results are an average of 4 identical wells.
The effect that DSHs have on the adhesion of PAO1-EGFP on polystyrene surface (microtiter plate) was also examined. PAO1-EGFP is a P. aeruginosa strain that constitutively expresses green fluorescent protein. In the adhesion assays, PAO1-EGFP was grown in microtiter plate for 24-hours in LB-media with (160 μM) or without DSHs. After 24-hours, the fluorescent signal obtained from surface adhered PAO1-EGFP was measured. Percent reduction in fluorescence was calculated by comparing fluorescent signal from PAO1-EGFP grown in LB-media with the signal from wells that had DSHs (FIG. 29A). To study the effect of DSHs on biofilm formation, Pseudomonas aeruginosa (PAO1) was grown in LB-media with (160 μM) or without DSHs at 37° C. under static conditions within wells of microtiter plates. After 24 hours, the surface attached biofilms adhering to the bottom of the wells were stained with crystal-violet dye and the biofilm was quantified by measuring absorbance at 600 nm (OD600). […] Similar to inhibition, the surface attached biofilm after dispersion with DSHs was quantified with crystal-violet staining and absorbance measurement at 600 nm, except that for dispersion, biofilm was first grown for 1 day in just LB-media without any DSHs after which DSHs were added and plates were incubated for additional 24 hours followed by quantification (FIG. 29B).
Crystal violet (CV) based-biofilm inhibition assay. Inhibitory effect of all synthesized disaccharide hydrocarbons on biofilm formation of Pseudomonas aeruginosa (wild type PAO1) was determined by static biofilm inhibition assay using crystal violet staining. Overnight culture of PAO1 were sub cultured in LB media to OD600 of 0.01 and further the OD600 was allowed to reach ˜0.1. The bacterial sub-culture (200 μL) was then added into the wells of a microtiter plate. Predetermined concentrations of DSHs were added to respective wells containing sub culture by pipetting out fixed volume of sterile aqueous stock solutions (except DβL (7), SPOT, (15) and 2-ODαC (17), which were introduced as stocks prepared in H2O […] and EtOH (90:10) solutions). The microtiter plates were then wrapped in GLAD Press n′ Seal® (saran wrap) and further incubated under stationary conditions for 24 h at 37° C. After 24 h incubation, the culture media was discarded by pipetting carefully (without disrupting biofilm), the plate was then washed once with sterile water (200 μL) and allowed to dry at 37° C. for ˜30 mins. Microtiter plates were then stained with 0.1% aqueous solution of crystal violet (CV) (200 μL) at rt for ˜30 mins. Following this, the CV stain was removed and plate was again washed with sterile water (200 μL). Resultant CV stain in the well was then solubilized by adding 100 μL of 30% AcOH solution (in water) and mixing gently by pipetting.

[2] = tested on: 1-day old PAO1 biofilm; assay: Crystal violet assay for dispersion of 1-day old biofilm, DSHs (Examples 2 and 4); conditions: 160 μM, another 24 h
Method: The effect that DSHs have on the adhesion of PAO1-EGFP on polystyrene surface (microtiter plate) was also examined. PAO1-EGFP is a P. aeruginosa strain that constitutively expresses green fluorescent protein. In the adhesion assays, PAO1-EGFP was grown in microtiter plate for 24-hours in LB-media with (160 μM) or without DSHs. After 24-hours, the fluorescent signal obtained from surface adhered PAO1-EGFP was measured. Percent reduction in fluorescence was calculated by comparing fluorescent signal from PAO1-EGFP grown in LB-media with the signal from wells that had DSHs (FIG. 29A). To study the effect of DSHs on biofilm formation, Pseudomonas aeruginosa (PAO1) was grown in LB-media with (160 μM) or without DSHs at 37° C. under static conditions within wells of microtiter plates. After 24 hours, the surface attached biofilms adhering to the bottom of the wells were stained with crystal-violet dye and the biofilm was quantified by measuring absorbance at 600 nm (OD600). The percent inhibition was calculated by comparing biofilm content of wells with no added agents (control) with the biofilm content from wells that had 160 μM of DSHs (FIG. 29A). Similar to inhibition, the surface attached biofilm after dispersion with DSHs was quantified with crystal-violet staining and absorbance measurement at 600 nm, except that for dispersion, biofilm was first grown for 1 day in just LB-media without any DSHs after which DSHs were added and plates were incubated for additional 24 hours followed by quantification (FIG. 29B).
Crystal violet based assay for quantifying dispersion of 1-day old PAO1 biofilms were Plate for set up similar to inhibition assay with a slight modification. Wells of the micro-titer plate was inoculated with (200 μL) bacterial subculture (PAO1 subculture OD600 ˜0.1). The plates were incubated at 37° C. for 24 hours to allow biofilm formation. After 24 hours, bacterial culture was gently pipetted out and appropriate volume of DSH were added followed by addition of fresh LB medium (200 μL). The microtiter plate was incubated for an additional 24 hours at 37° C., following which, similar to work up of inhibition assay, culture was removed, wells were washed and CV-dye was introduced, followed by washing and destaining with 30% AcOH solution in water and quantification at 600 nm. Here again, only the surface attached biofilm dispersed was reported by comparing wells with DSHs with wells with no agent.
Dose dependence assays for biofilm inhibition and dispersion. […] Both for biofilm inhibition and dispersion, predetermined volumes of DSH stocks were added to the assigned wells to span a concentration range between 0.5 μM-170 μM. Percent biofilm inhibition of dispersion was calculated by comparing to wells with no agent. The percent biofilm inhibition or dispersion was plotted versus concentration of DSHs. The linear values were logarithmically curve fitted using equation […]. The half maximal inhibitory concentration for both biofilm inhibition and dispersion (IC50 and DC50) were thus obtained.

[3] = tested on: wild type PAO1; assay: Swarming motility of wild type PAO1 on soft agar (antagonist assay)
Method: In contrast, the wild type P. aeruginosa produces the rhamnolipids and is capable of swarming on soft agar gel (˜0.5% agar). […] We note that saccharide hydrocarbons may also promote the swarming motility, but such promotions are less unambiguous than the inhibition for wild type PAO1. Such promotion will be unambiguous in the agonist assay using the nonswarming mutant rhlA.
(§1) Swarm agar plates were based on M8 medium supplemented with 0.2% glucose, 0.5% casamino acid, 1 mM MgSO4 and […]. 17 For each set of experiment all the swarm plates were poured from same batch of agar and allowed to dry for 1 h before inoculation of bacteria. Bacterial culture (3 μl) (wild type PAO1 or rhlA mutant) with OD600 between […] was inoculated on the solidified agar plates. Swarm agar plates were incubated at 37° C. for 12 h and then incubated for additional 12 h at room temp. Chronological images of swarm plates were taken using a camera. To measure swarming area, sizes of the petridish in all swarming images were adjusted to a pre-assigned diameter and images were printed on copying paper (Xerox-business 4200). Weight of a 1 cm^2 copy paper square was roughly ˜8.0 mg. swarming images on the copy paper were cut and weighed, the swarm area was calculated by dividing the weight of image by weight of 1 cm^2 square (8 mg).
(§2) Swarm agar plates were made using M8 medium supplemented with 0.2% glucose, 0.5% casamino acid, 1 mM MgSO4 and solidified with 0.5% Bacto agar. 24 Bacterial culture with OD600 between 0.4 to 0.6 was inoculated as 3 μl aliquots. Swarm agar plates were incubated at 37° C. for 12 h and then incubated for additional 12 h at rt. For each set of experiment all the swarm plates were poured from same batch of agar and allowed to dry for 1 h before inoculation of bacteria.

[4] = tested on: nonswarming P. aeruginosa mutant rhlA; assay: Swarming motility of nonswarming rhlA mutant on soft agar (reactivation / agonist assay); conditions: 85 μM in soft agar (0.5%), 24 h
From the text: Using nonswarming mutant to screen for swarming agonists and wild type P. aeruginosa for swarming antagonists. The transposon mutant, rhlA (genotype, rhlA-E08:ISphoA/hah)39 of P. aeruginosa (PAO1), that impairs the gene that is responsible for synthesizing rhamnolipids is completely incapable of a swarming motility. […] Based on this inference, a rhlA mutant was used in a swarming experiment to screen the saccharide-hydrocarbons for agonists that can reactivate the swarming motility of rhlA.
as §1, §2

[5] = tested on: PAO1 biofilm; assay: Crystal violet dye based biofilm inhibition assay, maltose derivatives (Example 1); conditions: 110 μM, 24 h, CV assay
Method: A crystal violet (CV) assay was used to measure the amount of PAO1 biofilm formed after 24 h of bacterial inoculation. The fluorescence of green fluorescent proteins (GFP) expressed by PAO1-GFP was measured to directly quantify bacterial adhesion on polystyrene black 96 well plates with and without maltose derivatives after 2 h of bacterial inoculation. To evaluate the potential of maltose derivatives as both anti-biofilm and anti-adhesion agents, they were compared to a brominated furanone (BF8) known to inhibit biofilm formation, and two generic surfactants, sodium dodecyl sulfate (SDS) and tetra (ethylene glycol) monododecyl ether (C12EG4OH). […] P. aeruginosa strain PAO1-EGFP that constitutively producing green fluorescent protein was allowed to form biofilm on sterile steel coupons.
Inhibitory effect of all the maltose hydrocarbons on P. aeruginosa biofilm formation was determined by crystal violet dye based biofilm inhibition assays. Overnight culture of wild type P. aeruginosa (PAO1) was sub cultured to an OD600 of 0.01 into the 95:5 M9+:Lb medium. 200 μL of the sub culture was aliquoted into the wells of 96 well polystyrene microtiter plate when it reached the OD600 of 0.1. Predetermined concentrations of the test compounds were then added to the respective wells containing sub culture. Sample plates were wrapped in GLAD Press n′ Seal® followed by incubation under stationary conditions for 24 h at 37° C. After incubation the media was discarded and the plates were washed with water and dried for 1 h at 37° C. The sample plates were stained with 200 μL of 0.1% aqueous solution of crystal violet (CV) and followed by incubation at ambient temperature for 20 min. The CV stain was then discarded and the plates were washed with water. The remaining biofilm adhered stain was re-solubilized with 200 μL of 30% acetic acid. After the stain was dissolved (15 minutes), 100 μL of the solubilized CV was transferred from each well into the corresponding wells of a new polystyrene microtiter dish. Biofilm inhibition was quantified by measuring the OD600 of each well in which a negative control lane wherein no biofilm was formed served as a background and was subtracted out. The percent inhibition was calculated by the comparison of the OD600 for biofilm grown in the absence of compound (control) versus biofilm grown in the presence of compound under identical conditions.
Predetermined amounts maltose derivatives stock solution was added to the 200 μL bacterial culture in 96 well plate so that the final concentration of the agent reaches the desired values of 1, 5, 10, 20, 40, 85, 113, 140 μM. Biofilm inhibition and dispersion assay was carried as described previously.

Row | Molecule | Inhibition of PAO1 biofilm formation (surface attached) [1] | Inhibition of PAO1 biofilm formation (surface attached) ([1]; listed as 17: 2-ODαC, 160 µM) | Dispersion of 24-h old PAO1 biofilm [2] | Inhibition of PAO1 biofilm formation (surface attached) ([1]; listed as 16: 2-ODβC, 160 µM) | Anti-biofilm activity (biofilm inhibition) ([1]; concentration not given) | Swarming motility of wild type PAO1 ([3]; 85 μM in soft agar, 24 h) | Effect on PAO1 swarming ([3]; concentration not given) | Swarming motility of rhlA mutant [4] | Inhibition of PAO1 biofilm [5]
1 | CCCCCCCCCCC(CCCCCCCC)CO[C@H]1O[C@H](CO)[C@@H](O[C@@H]2O[C@H](CO)[C@@H](O)[C@H](O)[C@H]2O)[C@H](O)[C@H]1O (stereo partly drawn) [2-ODαC (17), 2-octyl-dodecyl-α-cellobioside] | not active for biofilm inhibition or dispersion | ineffective at biofilm inhibition | not active for biofilm inhibition or dispersion | – | – | – | – | – | –
2 | CCCCCCCCCCC(CCCCCCCC)CO[C@@H]1O[C@H](CO)[C@@H](O[C@@H]2O[C@H](CO)[C@@H](O)[C@H](O)[C@H]2O)[C@H](O)[C@H]1O (stereo partly drawn) [2-ODβC (16), 2-octyl-dodecyl-β-cellobioside] | – | – | not active for biofilm inhibition or dispersion | ineffective at biofilm inhibition | not effective at inhibiting the biofilm formation | inhibited the swarming motility of wild type PAO1 | did exhibit inhibition of PAO1 swarming; also recorded: inhibits the swarming activities of PAO1; also recorded: PAO1 swarming inhibitors | no apparent effect on rhlA | –
3 | CCCCCCCCCCC(CO[C@@H]1O[C@H](CO)[C@@H](O[C@H]2O[C@H](CO)[C@@H](O)[C@H](O)[C@H]2O)[C@H](O)[C@H]1O)Cc1ccc(C(C)(C)C)cc1 (stereo partly drawn) [4-tBuBDβM, 4-tertiary butyl benzyl dodecyl β-maltoside] | – | – | – | – | – | – | – | did not exhibit any significant activation of swarming | 74%
4 | benzyl decyl β-maltoside [BDeβM] | – | – | – | – | – | – | – | swarming motility with without well-defined tendrils | 50%
